Values joined by “and” are separate entries in the source; they are usually repeats but may differ in a detail not shown here. Identical values can stand only once.
How the values were obtained:
[1] = refractive index (Na D-line) (dimensionless); settings: 298.15 K; 101.33 kPa; Liquid; Standard Abbe refractometry
[2] = molar heat capacity at constant pressure; settings: 101.33 kPa, Liquid, Small sample (50 mg) DSC
[3] = Liquid; for mass density: Vibrating tube method; for speed of sound: Pulse-echo method

CC(O)CC(C)(C)O (centres undefined) [2-methyl-2,4-pentanediol]
Settings | refractive index
[1] | 1.4258

[2]
Settings | molar heat capacity at constant pressure [J/K/mol]
284.16 K | 250.63
288.14 K | 254.33
293.14 K | 258.4
298.16 K | 262.4
303.15 K | 266.42
308.15 K | 270.35
313.15 K | 274.7
318.15 K | 279.12
323.15 K | 283.62
328.15 K | 288.35
333.15 K | 293.21
338.15 K | 298.13
343.15 K | 303.01
348.15 K | 307.95
353.14 K | 314.8
358.16 K | 318.39

[3]
Settings | mass density | speed of sound [m/s]
278.15 K, 101.33 kPa | 932.344 kg/m3 | –
283.15 K, 101.33 kPa | 928.795 kg/m3 | –
288.14 K, 100 kPa | – | 1326.5
288.15 K, 101.33 kPa | 925.238 kg/m3 | 1326.4
291.11 K, 100 kPa | – | 1317.1
292.85 K, 101320 kPa | – | 1675.8
292.86 K, 15200 kPa | – | 1382.2
292.86 K, 30390 kPa | – | 1443.5
292.86 K, 45590 kPa | – | 1499.7
292.86 K, 60790 kPa | – | 1551.7
292.86 K, 75990 kPa | – | 1600.9
292.86 K, 91180 kPa | – | 1646.9
293.14 K, 100 kPa | – | 1310.7
293.15 K, 101.33 kPa | 921.71 kg/m3 and 921.676 kg/m3 | 1310.7
298.15 K, 100 kPa | – | 1295.2
298.15 K, 101.33 kPa | 918.16 kg/m3 and 918.11 kg/m3 | 1295.2
298.15 K, 15200 kPa | – | 1366.7
298.15 K, 30390 kPa | – | 1428.8
298.15 K, 45590 kPa | – | 1485.4
298.15 K, 60790 kPa | – | 1538.1
298.15 K, 75990 kPa | – | 1587.3
298.15 K, 91180 kPa | – | 1634
298.15 K, 101320 kPa | – | 1663.4
301.02 K, 100 kPa | – | 1286.3
303.13 K, 30390 kPa | – | 1414.6
303.14 K, 15200 kPa | – | 1351.4
303.14 K, 45590 kPa | – | 1472.1
303.14 K, 60790 kPa | – | 1525.2
303.14 K, 75990 kPa | – | 1575.1
303.14 K, 91180 kPa | – | 1622.1
303.14 K, 101320 kPa | – | 1651.8
303.15 K, 100 kPa | – | 1279.9
303.15 K, 101.33 kPa | 914.59 kg/m3 | 1279.8
303.16 K, 101.33 kPa | 914.548 kg/m3 | –
308.13 K, 15200 kPa | – | 1336.9
308.13 K, 30390 kPa | – | 1400.8
308.13 K, 45590 kPa | – | 1459.2
308.13 K, 60790 kPa | – | 1513
308.13 K, 75990 kPa | – | 1563.1
308.13 K, 91180 kPa | – | 1610.8
308.13 K, 101320 kPa | – | 1640.8
308.15 K, 100 kPa | – | 1264.7
308.15 K, 101.33 kPa | 910.981 kg/m3 and 911.02 kg/m3 | 1264.7
308.18 K, 100 kPa | – | 1264.6
313.1 K, 15200 kPa | – | 1323
313.1 K, 30390 kPa | – | 1387.6
313.1 K, 45590 kPa | – | 1446.5
313.1 K, 60790 kPa | – | 1501
313.1 K, 75990 kPa | – | 1551.6
313.1 K, 101320 kPa | – | 1629.9
313.11 K, 91180 kPa | – | 1599.6
313.15 K, 101.33 kPa | 907.43 kg/m3 and 907.411 kg/m3 | 1249.6
313.16 K, 100 kPa | – | 1249.6
318.15 K, 101.33 kPa | 903.84 kg/m3 and 903.834 kg/m3 | 1234.7
318.19 K, 100 kPa | – | 1234.6
318.29 K, 15200 kPa | – | 1308.8
318.29 K, 30390 kPa | – | 1374.5
318.29 K, 45590 kPa | – | 1434.2
318.29 K, 60790 kPa | – | 1489.3
318.29 K, 75990 kPa | – | 1539.5
318.29 K, 91180 kPa | – | 1588.5
318.29 K, 101320 kPa | – | 1619.2
323.15 K, 101.33 kPa | 900.247 kg/m3 | –
328.16 K, 101.33 kPa | 896.647 kg/m3 | –
333.16 K, 101.33 kPa | 893.033 kg/m3 | –
338.15 K, 101.33 kPa | 889.4 kg/m3 | –
343.15 K, 101.33 kPa | 885.746 kg/m3 | –
348.15 K, 101.33 kPa | 882.068 kg/m3 | –
353.15 K, 101.33 kPa | 878.362 kg/m3 | –
358.15 K, 101.33 kPa | 874.626 kg/m3 | –

Source: the NIST ThermoML archive (doi:10.1021/je800244q)
